From ChEMBL document CHEMBL2150850, “Recent advances in the development of selective human MAO-B inhibitors: (hetero)arylidene-(4-substituted-thiazol-2-yl)hydrazines” (Eur J Med Chem, 2012)

Tests used:
[1] = target: T1, Amine oxidase [flavin-containing] A (Homo sapiens, UniProt P21397); experiment: Inhibition of human MAO-A expressed in baculovirus infected BTI-TN-5B1-4 cells using p-tyramine as substrate at 100 uM incubated for 15 mins prior to substrate addition measured for 15 mins by Amplex red assay
T1 sequence (P21397 whole entry): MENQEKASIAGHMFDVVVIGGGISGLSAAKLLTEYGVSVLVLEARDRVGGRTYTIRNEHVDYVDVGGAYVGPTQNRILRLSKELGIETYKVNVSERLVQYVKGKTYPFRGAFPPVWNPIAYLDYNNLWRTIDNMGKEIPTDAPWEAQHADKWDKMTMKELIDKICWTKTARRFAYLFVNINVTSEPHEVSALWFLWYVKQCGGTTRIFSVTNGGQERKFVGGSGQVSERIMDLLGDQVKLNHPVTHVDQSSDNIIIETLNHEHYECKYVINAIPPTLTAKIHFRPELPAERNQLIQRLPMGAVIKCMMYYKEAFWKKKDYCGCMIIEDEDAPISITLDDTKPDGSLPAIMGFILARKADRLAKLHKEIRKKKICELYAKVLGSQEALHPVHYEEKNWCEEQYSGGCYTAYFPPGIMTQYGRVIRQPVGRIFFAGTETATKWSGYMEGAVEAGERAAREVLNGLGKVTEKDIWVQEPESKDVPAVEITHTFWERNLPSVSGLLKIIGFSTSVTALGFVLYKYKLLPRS

Homo sapiens = organism: Homo sapiens; experiment: Selectivity ratio of IC50 for human MAO-A to IC50 for human MAO-B
[2] = target: T2, Amine oxidase [flavin-containing] B (Homo sapiens, UniProt P27338); experiment: biochemical; assay type: cell-based, BTI-TN-5B1-4
T2 sequence (P27338 whole entry): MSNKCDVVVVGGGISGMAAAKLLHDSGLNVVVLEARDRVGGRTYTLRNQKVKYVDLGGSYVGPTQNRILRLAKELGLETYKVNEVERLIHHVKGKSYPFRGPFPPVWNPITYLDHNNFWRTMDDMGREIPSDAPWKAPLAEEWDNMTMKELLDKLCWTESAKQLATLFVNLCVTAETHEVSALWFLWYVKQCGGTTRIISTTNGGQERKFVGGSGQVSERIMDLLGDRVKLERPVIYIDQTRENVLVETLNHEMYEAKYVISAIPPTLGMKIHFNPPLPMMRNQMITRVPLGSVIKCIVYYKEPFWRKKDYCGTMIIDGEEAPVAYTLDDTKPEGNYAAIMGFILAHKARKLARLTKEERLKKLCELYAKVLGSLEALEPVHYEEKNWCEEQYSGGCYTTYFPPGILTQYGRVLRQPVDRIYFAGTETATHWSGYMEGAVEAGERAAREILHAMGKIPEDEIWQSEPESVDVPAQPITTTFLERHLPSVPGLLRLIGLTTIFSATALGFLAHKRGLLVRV
Description: Inhibition of human MAO-B expressed in baculovirus infected BTI-TN-5B1-4 cells using p-tyramine as substrate incubated for 15 mins prior to substrate addition measured for 15 mins by Amplex red assay

[3] = target: T2, Amine oxidase [flavin-containing] B; experiment: Reversible inhibition of human MAO-B expressed in baculovirus infected BTI-TN-5B1-4 cells using p-tyramine as substrate at 70 uM incubated for 30 mins prior to substrate addition followed by 100 fold dilution measured for 15 mins by Amplex red assay; settings: bti-tn-5b1-4, 0.25 h
[4] = target: T2, Amine oxidase [flavin-containing] B; experiment: Reversible inhibition of human MAO-B expressed in baculovirus infected BTI-TN-5B1-4 cells using p-tyramine as substrate at 20 nM incubated for 30 mins prior to substrate addition followed by 100 fold dilution measured for 15 mins by Amplex red assay; settings: bti-tn-5b1-4, 0.25 h, 0.02 µM
[5] = target: T1, Amine oxidase [flavin-containing] A; experiment: Inhibition of human MAO-A expressed in baculovirus infected BTI-TN-5B1-4 cells using p-tyramine as substrate incubated for 15 mins prior to substrate addition measured for 15 mins by Amplex red assay
[6] = target: T2, Amine oxidase [flavin-containing] B; experiment: Inhibition of human MAO-B expressed in baculovirus infected BTI-TN-5B1-4 cells using p-tyramine as substrate at 100 uM incubated for 15 mins prior to substrate addition measured for 15 mins by Amplex red assay; settings: BTI-TN-5B1-4, human, 0.25 h

Row | inhibition (INH) ([1]; human, bti-tn-5b1-4, 0.25 h, 100 µM) | Ratio IC50 (Homo sapiens) | IC50 [2] | inhibition (INH) [3] | inhibition at 100 µM ([1]; BTI-TN-5B1-4, human, 0.25 h) | inhibition (INH) [4] | IC50 [5] | inhibition at 100 µM [6] | SMILES
1 | Not Active | > 15 | 6.75 µM | Active | – | – | – | – | N#Cc1ccc(-c2csc(N/N=C\c3ccncc3)n2)cc1
2 | – | < 0.03 | – | – | – | – | 3.04 µM | 40% | C/C(=N/Nc1nc(-c2ccc(F)cc2F)cs1)c1ccccn1
3 | – | 294 | 0.153 µM | – | – | – | 45 µM | – | N#Cc1ccc(-c2csc(N/N=C\c3cccs3)n2)cc1

The remaining lines, values behind:

Row | SMILES | inhibition (INH) ([1]; human, bti-tn-5b1-4, 0.25 h, 100 µM) | Ratio IC50 (Homo sapiens) | IC50 [2] | inhibition (INH) [3] | inhibition at 100 µM ([1]; BTI-TN-5B1-4, human, 0.25 h) | inhibition (INH) [4] | IC50 [5] | inhibition at 100 µM [6]
4 | C/C(=N/Nc1nc(-c2ccc(F)cc2)cs1)c1cccnc1 | – | > 58800 | 0.0017 µM | – | 40% | Active | – | –
5 | C/C(=N/Nc1nc(-c2ccc(F)cc2F)cs1)c1ccccc1 | – | 235 | 0.0903 µM | – | – | – | 21.2 µM | –
6 | C/C(=N/Nc1nc(-c2ccc(F)cc2F)cs1)c1nccs1 | – | 421 | 0.013 µM | – | – | – | 5.46 µM | –
